The results in this text go back to patent US12258337B2, “Bicyclic CX3CR1 receptor agonists” (Board of Regents, The University of Texas System, priority 2019, dated 2025).

Test [1] concerns the target T1, hCX3CR1 (Homo sapiens, UniProt P49238).
T1 sequence (P49238 1-355): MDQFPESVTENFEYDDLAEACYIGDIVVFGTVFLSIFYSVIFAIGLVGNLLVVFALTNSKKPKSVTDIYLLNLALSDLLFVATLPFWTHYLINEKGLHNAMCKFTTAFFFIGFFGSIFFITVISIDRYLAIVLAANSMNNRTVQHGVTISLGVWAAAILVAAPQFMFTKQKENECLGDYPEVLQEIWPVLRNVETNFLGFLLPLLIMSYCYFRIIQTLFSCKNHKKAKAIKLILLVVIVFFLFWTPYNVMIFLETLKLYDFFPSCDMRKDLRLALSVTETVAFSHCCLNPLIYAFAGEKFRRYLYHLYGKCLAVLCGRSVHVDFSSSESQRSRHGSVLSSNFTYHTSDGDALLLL
Nature of the test: Suchi5 assay (HEK/NatClytin/CNG/Suchi5 transiently transfected hCX3CR1, Fluo-8 Ca2+ readout). More on the design: expressed in transfected cells; stably expresses a Ca2+ sensitive photo-protein. Format: cell-based. The following applies: Suchi5 assay, HEK/NatClytin/CNG/Suchi5 transfected with hCX3CR1; read-out: hCX3CR1 agonism EC50. An outline of the steps:
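HEK/NatClytin/CNG cells overexpressing Gαiq chimera Suchi5, transiently transfected with hCX3CR1, seeded 24 h before assay. Cells loaded 1 h at RT with 0.5X Fluo-8 in Tyrode buffer (pH 7.4); compounds injected on FLIPR and Ca2+ kinetic fluorescence followed for 90 s. Agonist: recombinant human fractalkine (CX3CL1).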

The target in test [2] is T1, hCX3CR1. Briefly: Ga16 assay, CX3CR1 agonism, Ca2+ sensitive photo-protein readout (FLIPRTETRA). It counts as cell-based. More on the design: expressed in transfected cells; stably expresses a Ca2+ sensitive photo-protein. The following applies: human CX3CR1 cell line. Put shortly:
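Cells expressing human, mouse or rat CX3CR1 with a stably expressed Ca2+-sensitive photoprotein were loaded with 10 μM coelenterazine in tyrode buffer pH 7.4 for 3 h at room temperature. Agonist-mode luminescence kinetics were recorded for 90 s after compound injection on FLIPRTETRA. Dose-response runs were done in quadruplicate, with fractalkine as the reference agonist.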

As to `CN(C)CC1(CNC(=O)c2cc3c(s2)CCCCCC3)CCC1` [Example 23, N-[[1-[(dimethylamino)methyl]cyclobutyl]methyl]-4,5,6,7,8,9-hexahydrocycloocta[b]thiophene-2-carboxamide], the EC50 (usually the concentration at which the effect is half-maximal) at hCX3CR1 [1] came to 6.5 µM; on hCX3CR1 [2] it was 10.5 µM.

Regarding `O=C(NCC1(CN2CCC(O)C2)CCCC1)c1cc2c(s1)CCCCCC2` (racemic) [Example 25, N-[[1-[(3-hydroxypyrrolidin-1-yl)methyl]cyclopentyl]methyl]-4,5,6,7,8,9-hexahydrocycloocta[b]thiophene-2-carboxamide], the EC50 is 11.8 µM at hCX3CR1 [1] and 10.5 µM on hCX3CR1 [2].

As for `O=C(NCC1(CN2CCCCC2)CCCC1)c1cc2c(s1)CCCCCC2` [Example 15, N-[[1-(piperidin-1-ylmethyl)cyclopentyl]methyl]-4,5,6,7,8,9-hexahydrocycloocta[b]thiophene-2-carboxamide], the EC50 on hCX3CR1 [1] was 5.5 µM; on hCX3CR1 [2], 19.3 µM.

As to `O=C(NCC1(CN2CCCC2)CC(O)C1)c1cc2c(s1)CCCCCC2` (stereo not shown) [Example 32, N-[[3-hydroxy-1-(pyrrolidin-1-ylmethyl)cyclobutyl]methyl]-4,5,6,7,8,9-hexahydrocycloocta[b]thiophene-2-carboxamide], the values for the EC50 on hCX3CR1 [1] and at hCX3CR1 [2] were 5.8 µM and 9.1 µM, respectively.

`CN(C)CC(C)(C)CNC(=O)c1cc2c(s1)CCCCCC2` [Example 70, N-[3-(dimethylamino)-2,2-dimethylpropyl]-4,5,6,7,8,9-hexahydrocycloocta[b]thiophene-2-carboxamide]: the EC50 at hCX3CR1 [1] was 9.3 µM; at hCX3CR1 [2] it was 17 µM.

As for `O=C(NCC1(CN2CCC(O)CC2)CCCC1)c1cc2c(s1)CCCCCC2` [Example 28, N-[[1-[(4-hydroxypiperidin-1-yl)methyl]cyclopentyl]methyl]-4,5,6,7,8,9-hexahydrocycloocta[b]thiophene-2-carboxamide], the EC50 amounted to 6.7 µM at hCX3CR1 [1] and 8.2 µM at hCX3CR1 [2].

For `CN(CCO)CC1(CNC(=O)c2cc3c(s2)CCCCCC3)CCC1` [Example 30, N-[[1-[[2-hydroxyethyl(methyl)amino]methyl]cyclobutyl]methyl]-4,5,6,7,8,9-hexahydrocycloocta[b]thiophene-2-carboxamide], the half-maximal effective concentration (EC50) at hCX3CR1 [1] amounted to 36.1 µM; at hCX3CR1 [2], 10.2 µM.

For `O=C(NCC1(CN2CCCC2)CCC1)c1cc2c(s1)CCCCCC2` [Example 21, N-[[1-(pyrrolidin-1-ylmethyl)cyclobutyl]methyl]-4,5,6,7,8,9-hexahydrocycloocta[b]thiophene-2-carboxamide], the concentration for a half-maximal effect (EC50) at hCX3CR1 [1] was 4.7 µM; at hCX3CR1 [2], 6 µM.

On to `O=C(NCC1(CN2CCCC(O)C2)CCCC1)c1cc2c(s1)CCCCCC2` (stereo not shown) [Example 27, N-[[1-[(3-hydroxypiperidin-1-yl)methyl]cyclopentyl]methyl]-4,5,6,7,8,9-hexahydrocycloocta[b]thiophene-2-carboxamide], for which the figures for the EC50 on hCX3CR1 [1] and at hCX3CR1 [2] were 7.5 µM and 11.3 µM, respectively.

For the compound `O=C(NCC1(CN2CCCC2)CCCC1)c1cc2c(s1)CCCCCC2` [Example 5, N-[[1-(pyrrolidin-1-ylmethyl)cyclopentyl]methyl]-4,5,6,7,8,9-hexahydrocycloocta[b]thiophene-2-carboxamide], the EC50 was 12.9 µM at hCX3CR1 [1] and 8.4 µM on hCX3CR1 [2].

For the compound `CC(C)(CNC(=O)c1cc2c(s1)CCCCCC2)CN1CCCCC1` [Example 13, N-(2,2-dimethyl-3-piperidin-1-ylpropyl)-4,5,6,7,8,9-hexahydrocycloocta[b]thiophene-2-carboxamide], the EC50 at hCX3CR1 [1] came out at 9.6 µM; at hCX3CR1 [2], 12.3 µM.

Regarding `CC(C)(CNC(=O)c1cc2c(s1)CCCCCC2)CN1CCCC1` [Example 1, N-(2,2-dimethyl-3-pyrrolidin-1-ylpropyl)-4,5,6,7,8,9-hexahydrocycloocta[b]thiophene-2-carboxamide], the EC50 stood at 13.9 µM on hCX3CR1 [1] and 11.5 µM on hCX3CR1 [2].

For `CN(C)CC1(CNC(=O)c2cc3c(s2)CCCCCC3)CC(O)C1` (stereo not shown) [Example 31, N-[[1-[(dimethylamino)methyl]-3-hydroxycyclobutyl]methyl]-4,5,6,7,8,9-hexahydrocycloocta[b]thiophene-2-carboxamide], the EC50 on hCX3CR1 [1] was determined as 4.7 µM; on hCX3CR1 [2], 9.4 µM.

`CN(C)CC1(CNC(=O)c2cc3c(s2)CCCCCC3)CCCC1` [Example 2, N-[[1-[(dimethylamino)methyl]cyclopentyl]methyl]-4,5,6,7,8,9-hexahydrocycloocta[b]thiophene-2-carboxamide]: the 50% effective concentration (EC50) at hCX3CR1 [1] turned out to be 5.4 µM; on hCX3CR1 [2], 9.3 µM.
